Here are results for ten molecules from patent US7060293B1, “Powder-layered oral dosage forms” (Purdue Pharma, priority 1994, dated 2006).

Structures can show the parent of a compound that is named as a salt.

The first data set in a line: Bulk density (poured and tapped) of drug powders and processing aid. The conditions noted are these: entries with asterisk: Bulk Densities performed at PRC. Format: physicochemical.
`Cn1c(=O)c2[nH]cnc2n(C)c1=O` [Aminophylline USP, Aminophylline]: the “Tapped Bulk Densities” value worked out at 0.62 g/mL.
Same read-out and setting: for `O=C(O)Cc1ccccc1Nc1c(Cl)cccc1Cl` [Diclofenac Sodium] the value was 0.31 g/mL; for `O=C1O[C@H]([C@@H](O)CO)C([O-])=C1O.[Na+]` [Sodium Ascorbate USP, Sodium Ascorbate], 0.66 g/mL; for `Cn1c(=O)c2[nH]cnc2n(C)c1=O` [Theophylline Anhydrous], 0.44 g/mL.
For `COc1cccc(C2(O)CCCCC2CN(C)C)c1` (stereo not shown) [Tramadol HCL], the “Tapped Bulk Densities” value worked out at 0.42 g/mL.

Staying with this data set, now noted: powder used in the examples.
For `CC(=O)Nc1ccc(O)cc1` [Acetaminophen], the bulk density result is “about 0.42 g/ml”.
`CCN(CC)CCNC(=O)c1cc(Cl)c(N)cc1OC` [Metoclopramide HCL]: the bulk density entry is “about 0.5 g/ml”.
Turning to `COc1cccc(C2(O)CCCCC2CN(C)C)c1` (stereo not shown) [Tramadol HCL], the bulk density result is on record as “about 0.42 g/ml”.
`O.OC[C@H]1O[C@@H](O[C@H]2[C@H](O)[C@@H](O)[C@@H](O)O[C@@H]2CO)[C@H](O)[C@@H](O)[C@H]1O` [lactose hydrous impalpable]: the bulk density is 0.56 g/mL and the tapped bulk density entry is “about 0.64 g/ml”.
For the molecule “Codeine Sulfate [Codeine Sulfate USP Medium Crystals Fine]”, the bulk density result is listed as “about 0.6 g/ml”.

Assay in the next data set: not given
The conditions noted are these: entries without asterisk (not marked as performed at PRC); cited from earlier work.
As for `CCN(CC)CCNC(=O)c1cc(Cl)c(N)cc1OC` [Metoclopramide HCL], the “Tapped Bulk Densities” value was 0.5 g/mL.
As to “Doxycycline Metaphosphate Sodium Complex”, the “Tapped Bulk Densities” value is 0.49 g/mL.
